# In US10780081B2, “Method of treating multiple sclerosis employing a LSD1-inhibitor” (ORYZON GENOMICS, S.A., priority 2016, dated 2020):
# Columns and labels:
# Human recombinant LSD1 = target: T1, Human recombinant LSD1 (Homo sapiens, UniProt O60341); assay: LSD1 in vitro biochemical assay (Amplex Red, di-methylated H3-K4 peptide); conditions: read-out: IC50 against LSD1
# T1 construct: amino acids 158-end with N-terminal GST tag; GST (N); purchased BPS Bioscience Inc 50100
# Description: In order to monitor LSD1 enzymatic activity and/or its inhibition rate by a test compound, di-methylated H3-K4 peptide (Anaspec) was chosen as a substrate. The demethylase activity was estimated, under aerobic conditions, by measuring the release of H2O2 produced during the catalytic process, using the Amplex® Red hydrogen peroxide/peroxidase assay kit (Invitrogen).
# Tranylcypromine (Biomol International) was used as a control for inhibition. Within the experiment, each concentration of inhibitor was tested in duplicate. After leaving the enzyme interacting with the inhibitor, KM of di-methylated H3-K4 peptide was added to each reaction and the experiment was left for 30 minutes at 37° C. in the dark. The enzymatic reactions were set up in a 50 mM sodium phosphate, pH 7.4 buffer. […] The conversion of the Amplex® Red reagent to resorufin due to the presence of H2O2 in the assay, was monitored by fluorescence (excitation at 540 nm, emission at 590 nm) using a microplate reader (Infinite 200, Tecan). […] The maximum demethylase activity of LSD1 was obtained in the absence of inhibitor and corrected for background fluorescence in the absence of LSD1. The IC50 value of each inhibitor was calculated with GraphPad Prism Software.
# [1] = system: immune cells in spleen and lymph nodes; assay: Number of immune cells in spleen and lymph nodes of EAE mice; assay type: in vivo, C57BL/6 mice; conditions: 0.5 mg/kg p.o., day 26 postimmunization, vs vehicle
# Experimental: (§1) Mice were scored daily for signs of EAE, using the scores described in Example 3.1. Animals were sacrificed on day 26 postimmunization and samples were collected and processed as described below. n=10 mice/group.
# (§2) Tissue collection and cell isolation. On day 26 postimmunization, spleen, draining lymph nodes (DLNs: cervicals, inguinals and axillaries), and spinal cord were removed. Spinal segments of the cervical and lumbar regions were prepared separately and processed for protein extraction, and histopathological analysis. Single-cell suspensions were obtained from spleen or pooled lymph nodes, the samples were homogenized and total number of cells was quantified using Neubauer chamber.
# (§3) Statistical Analysis: Cell number analysis in lymph nodes and spleen: statistical differences are indicated as ***p<0.001 vs vehicle using ANOVA test. Cytokine/chemokine level analysis: statistical differences are indicated as: *p<0.05, **p<0.005, using Mann-Whitney test; unpaired t-test was used for IP-10 level analysis.
# [2] = system: IL-4, IL-6, IL-1beta, IP-10, MCP-1 in spinal cord; assay: Cytokine/chemokine levels in spinal cord of EAE mice by ELISA; assay type: in vivo, C57BL/6 mice; conditions: 0.5 mg/kg p.o., day 26, vs vehicle
# Experimental: as §1
# Protein extraction and cytokine/chemokine analysis. Proteins were extracted from cervical and lumbar segments of spinal cord by homogenization (50 mg tissue/[…]) in lysis buffer (50 mM Tris-HCl, pH 7.4, 0.5 mM DTT, and 10 μg/ml proteinase inhibitors PMSF, pepstatin, and leupeptin). Samples were centrifuged (20.000×g, 15 min, 4° C.) and the supernatants were assayed for protein concentration (using Bradford method) and for cytokine/chemokine contents by using specific sandwich ELISAs for IL-4, IL-6, IL-1beta, IP-10 and MCP-1, according to manufacturer's recommendations, using the following antibodies and recombinant proteins:
# as §3
# [3] = system: Experimental Autoimmune Encephalomyelitis (EAE); assay: Experimental autoimmune encephalomyelitis (EAE) model, MOG35-55, daily clinical score; assay type: in vivo, C57BL/6 mice
# Experimental: To induce chronic EAE by active immunization, C57BL/6 mice were immunized s.c. with 100 μg of myelin oligodendrocyte glycoprotein MOG35-55 emulsified in complete Freund's adjuvant (CFA) containing 4 mg/ml Mycobacterium tuberculosis H37 RA. Mice also received i.p. injections of 200 ng of pertussis toxin on days 0 and 2.
# Mice were scored daily for signs of EAE according to the following clinical scoring system: 0, no clinical signs; 0.5, partial loss of tail tonicity; 1, complete loss of tail tonicity; 2, flaccid tail and abnormal gait; 3, hind leg paralysis; 4, hind leg paralysis with hind body paresis; 5, hind and fore leg paralysis; and 6, death.
# Control mice were orally treated with vehicle [2% v/v Tween-80+98% HPβCD (13% w/v)] following the same regime of administration. Mice were scored daily for signs of EAE according to clinical scoring system described in Example 3.1. n=10 mice/group. […]. […] Mice were scored daily for signs of EAE, using the scores described in Example 3.1. Animals were sacrificed on day 26 postimmunization and samples were collected and processed as described below. n=10 mice/group.
# [4] = Tolerability at therapeutic doses; assay type: in vivo
# [5] = system: demyelination and inflammatory cell infiltration in spinal cord; assay: Histopathological analysis of spinal cord in EAE mice (Kluver-Barrera); assay type: in vivo, C57BL/6 mice; conditions: 0.5 mg/kg p.o., day 26 postimmunization
# Experimental: as §1, §2
# Processing of samples for histopathological analysis. Cervical and lumbar spinal cord segments were divided and processed for inclusion and sectioning in paraffin. Spinal cord segments were immediately fixed with buffered 10% formalin for 48h, dehydrated and included in paraffin using standard techniques. Transversal sections (4-μm thickness) were stained with Luxol fast blue, cresyl violet, and hematoxylin following the Klüver-Barrera technique and were analyzed for the presence of areas of demyelination and cell infiltration using a light microscope (Leica, DM2000).
# Human recombinant MAO-A = target: T2, Human recombinant MAO-A (Homo sapiens, UniProt P21397); assay: MAO-A kynuramine fluorescence assay; assay type: biochemical
# T2 construct: purchased Sigma Aldrich
# T2 sequence (P21397 1-527): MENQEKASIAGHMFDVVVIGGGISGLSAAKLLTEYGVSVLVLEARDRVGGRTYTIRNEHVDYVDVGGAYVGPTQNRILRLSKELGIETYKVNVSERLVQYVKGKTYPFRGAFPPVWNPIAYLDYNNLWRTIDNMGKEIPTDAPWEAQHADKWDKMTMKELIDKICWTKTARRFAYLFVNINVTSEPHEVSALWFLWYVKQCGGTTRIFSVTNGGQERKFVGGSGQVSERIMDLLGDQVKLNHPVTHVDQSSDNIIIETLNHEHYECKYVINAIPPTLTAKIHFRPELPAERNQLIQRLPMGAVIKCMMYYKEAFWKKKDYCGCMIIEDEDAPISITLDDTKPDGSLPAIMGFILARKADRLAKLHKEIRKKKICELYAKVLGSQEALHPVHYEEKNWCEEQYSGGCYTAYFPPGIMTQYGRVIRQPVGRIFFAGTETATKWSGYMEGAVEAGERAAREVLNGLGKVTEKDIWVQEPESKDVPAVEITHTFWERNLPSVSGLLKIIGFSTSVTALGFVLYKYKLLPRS
# Description: Human recombinant monoamine oxidase proteins MAO-A and MAO-B were purchased from Sigma Aldrich. MAOs catalyze the oxidative deamination of primary, secondary and tertiary amines. In order to monitor MAO enzymatic activities and/or their inhibition rate by inhibitor(s) of interest, a fluorescence-based (inhibitor)-screening assay was set up. 3-(2-Aminophenyl)-3-oxopropanamine (kynuramine dihydrobromide, Sigma Aldrich), a non fluorescent compound was chosen as a substrate. Kynuramine is a non-specific substrate for both MAO-A and MAO-B activities. While undergoing oxidative deamination by MAO activities, kynuramine is converted into 4-hydroxyquinoline (4-HQ), a resulting fluorescent product.
# The monoamine oxidase activity was estimated by measuring the conversion of kynuramine into 4-hydroxyquinoline. […]
# After leaving the enzyme(s) interacting with the inhibitor, KM of kynuramine was added to each reaction for MAO-B and MAO-A assay respectively, and the reaction was left for 1 hour at 37° C. in the dark. […] The conversion of kynuramine to 4-hydroxyquinoline, was monitored by fluorescence (excitation at 320 nm, emission at 360 nm) using a microplate reader (Infinite 200, Tecan). Arbitrary units were used to measure levels of fluorescence produced in the absence and/or in the presence of inhibitor.
# The IC50 values of each inhibitor were calculated with GraphPad Prism Software.
SMILES,IC50 (Human recombinant LSD1),Number of immune cells retained in spleen and lymph nodes [1],IL-1 beta level in spinal cord [2],IL-4 level in spinal cord [2],IL-6 level in spinal cord [2],IP-10 level in spinal cord [2],MCP-1 level in spinal cord [2],"Development of EAE, disease incidence and severity by daily clinical score ([3]; 0.5 mg/kg p.o., Example 4)","Development of EAE, disease incidence and severity by daily clinical score ([3]; 1 or 3 mg/kg p.o., days 12-16 and 19-23 postimmunization)","Mice displaying mild symptoms ([3]; 1 or 3 mg/kg p.o., therapeutic regime)","Mice almost completely recovered ([3]; 1 or 3 mg/kg p.o., 40 days after disease onset)","Dose at which clinical score in EAE is reduced (as low as) ([3]; p.o., tested at 1, 0.5 and 0.05 mg/kg)","Tolerability on long-term treatment ([4]; 0.5 mg/kg p.o., mice)","Effects on hematology or circulating lymphocyte counts, gastro-intestinal toxicity ([4]; at therapeutically effective doses, no method or species printed)",Inflammatory cell infiltration and demyelination areas in cervical and lumbar spinal cord [5],Mean number of demyelination plaques in cervical and lumbar spinal cord [5],IC50 (Human recombinant MAO-A),"Effect on EAE clinical score ([3]; 0.06 and 0.180 mg/kg p.o., same scheme as Example 3.1)"
"Nc1nnc(CN[C@@H]2C[C@H]2c2ccc(OCc3ccccc3)cc2)o1 (single isomer, unassigned) [Compound 1, (−) 5-((((trans)-2-(4-(benzyloxy)phenyl)cyclopropyl)amino)methyl)-1,3,4-oxadiazol-2-amine]",90 nM,significant increase,reduced,significantly increased,reduced,significantly reduced,significantly reduced,greatly inhibited the development of EAE,greatly inhibited the development of EAE,40-70%,30%,≤ 0.05 mg/kg,well-tolerated,do not produce clinically relevant effects on hematology or circulating lymphocyte counts,no inflammatory cell infiltration nor demyelination areas were observed,absent or greatly reduced demyelination,5300 nM,
"Fc1ccccc1[C@@H]1C[C@H]1NC1CCNCC1 [ORY-LSD1, N-((1R,2S)-2-(2-fluorophenyl)cyclopropyl)piperidin-4-amine, reference compound]",,,,,,,,,,,,,,,,,,clear tendency for improvement
